Experimental data from US10172921B2, “Method of treating an inflammatory bowel disease comprising agonists of orexin-1 receptor” (INSERM (INSTITUT NATIONAL DE LA SANTÉ ET DE LA RECHERCHE …, priority 2014, dated 2019).

Legend:
DSS-induced colitis mice = assay: DSS-induced colitis in mice: Disease Activity Index and colon histology; type: in vivo
Excerpt: FIG. 2: OXA ameliorates the DAI (weight and colitis score) of DSS-induced colitis mice. Mice were orally treated with 5% DSS for 7 days.
FIG. 5: OXA ameliorates the DAI (weight and colitis score) of DSS-induced colitis mice. Mice were orally treated with 5% DSS for 7 days in the presence or in the absence of daily intraperitoneal injection of OxA (0.22 μmoles/kg). DAI score including weight loss, severity of diarrhea, the presence of blood in the stool, inflammation and edema was estimated using a scale ranging from 0 (no symptoms) to 4 (severe colitis). DSS, dextran sulfate sodium; WT, wild type mice.
Based on these observations, we have investigated the effect of Orexin A (OxA) on acute inflammation in mice treated with Dextran Sulfate Sodium (DSS). OxA was preferentially chosen in these experiments since the presence of two disulphide bridges confers it more stability. DSS induces acute colitis characterized by weight loss, bloody diarrhea, intestinal ulcerations and infiltrations with granulocytes.
(§1) These observations are confirmed by histologic aspect of colon epithelium (histologic scoring by a GI pathologist). Thus, OxA has probably an anti-inflammatory effect on DSS-induced colitis. To confirm this hypothesis, we have investigated the anti-inflammatory effect of OxA treatment on cytokines secretion in colon extracts from DSS-treated mice. […] In contrast, OxA has no effect on INFγ, IL10, and IL12 cytokine secretion in colon extracts (FIG. 3).
As shown in FIG. 5 when DSS-induced colitis mice were treated with OxA, the DAI score was ameliorated (about of 1.5).

[1] = system: cytokines secretion in colon extracts from DSS-treated mice; assay: Cytokine secretion in colon extracts of DSS-induced colitis mice; type: in vivo; conditions: FIG. 3
Excerpt: FIG. 3: OXA effects on cytokines secretion in DSS-induced colitis mice
as §1

EXCY2 mice = assay: Spontaneous UC-like colitis in EXCY2 mice (IL10-/-; Nox1-/-): DAI, colon histology, stress pathways; type: in vivo; conditions: for severe colitis: 10 week-old EXCY2 mice, 2 IP/week during 3 weeks; for DAI score: OxA 0.22 μmoles/kg intraperitoneal or 5-ASA 0.053 g/kg oral, scale 0 (no symptoms) to 4 (severe colitis), untreated mice 4, FIG. 7
Excerpt: FIG. 4: Histological aspect of colon mucosa in OxA treated mice (right) and non-treated mice (left)
FIG. 7: OXA better improves the DAI (weight and colitis score) of EXCY2 mice that the gold standard 5-aminosalicylic acid (5-ASA) treatment. Mice were intraperitoneal injected or not with OxA (0.22 μmoles/kg) or orally treated with 5-ASA (0.053 g/kg). DAI score including the weight loss, severity of diarrhea, the presence of blood in the stool, inflammation and edema was estimated using a scale ranging from 0 (no symptoms) to 4 (severe colitis).
DSS mouse model has been extensively used to decipher the mucosal inflammation in IBD, UC pathogenesis, and preclinical studies. However, mice show differential susceptibilities and responsiveness to DSS-induced colitis depending on their genetic background, gender. DSS model is a faithful model of inflammation but departs from Ulcerative Colitis in part for lack of the inflammation gradient from the rectum to the proximal colon usually observed in UC, any deregulation of ER stress in goblet cells known to be an early etiological factor of UC, and no digestive or extra-digestive complications of UC such as cholangitis and colorectal cancer, respectively. The use of genetically modified mice model represents a good alternative to chemically-induced colitis mice model. The recent development of a new spontaneous UC-like mouse model (EXCY2 mice, WO/2012/140516) consisting of a double KO of IL10 and Nox1 (IL10^−/−; Nox1^−/−) is ideally suited to study the OxA effect on spontaneous colitis. Indeed, EXCY2 mice 1) develop a spontaneous colitis at 6/7 weeks of age with an upwards gradient from the rectum and reproduce all molecular characteristics seen in UC including, loss of goblet cells, deregulation of ER stress, protective effect of tobacco; 2) spontaneously colonic cancer at 8 months of age (35-40% of mice); 3) develop mild cholangitis.
(§2) In contrast, the secretion of anti-inflammatory cytokine IL10 was unchanged (FIG. 6).
The treatment of EXCY2 mice with 5-ASA reduced the DAI score as compared to untreated mice, i.e. 3 vs 4, respectively.

[2] = system: cytokines secretion in EXCY2 mice; assay: Cytokine secretion in colons of EXCY2 mice (Cytokine CBA kits); type: in vivo; conditions: OxA 0.22 μmoles/kg, FIG. 6
Method: FIG. 6: OXA effects on cytokines secretion in EXCY2 mice. Colons of EXCY2 mice from untreated mice (white) and treated with OxA (0.22 μmoles/kg) treatment (black) were resected after animal sacrifice. Then, protein extraction was performed by tissue disruption. Cytokines were determined using Cytokine CBA kits (see Material and Methods).
as §2

Caco2 cells = assay: Oxidative stress and ER stress pathways in Caco2 cells; type: cell-based
[3] = colon extracts of DSS-induced colitis mice
[4] = colon extracts of DSS-treated mice

Compound: Orexin-A (XPLPDCCRQKTCSCRLYELLHGAGNHAAGILTLX; not fully specified; two disulphide bridges; MOD_RES (1)..(1) PYRROLIDONE CARBOXYLIC ACID; (34)..(34) Xaa can be any naturally occurring amino acid; listed as Homo sapiens) [OxA]
- DAI score (DSS-induced colitis mice; 5% DSS orally 7 days, daily intraperitoneal OxA 0.22 μmoles/kg, scale 0 (no symptoms) to 4 (severe colitis), FIG. 5, printed as 'ameliorated (about of 1.5)'): ~1.5
- histologic aspect of colon epithelium (DSS-induced colitis mice; DSS-treated mice, histologic scoring by a GI pathologist): ameliorates
- Disease Activity Index (DAI) scored by measuring weight, length of colon, diarrhea and the presence of blood in the stool (DSS-induced colitis mice; orally DSS-treated mice (5% DSS for 7 days), FIG. 2): ameliorates
- IL1B secretion [1, 3]: reduces
- IL6 secretion [1, 3]: reduces
- IL8 homolog secretion [1, 3]: reduces
- TNFα secretion [1, 3]: reduces
- IL10 cytokine secretion [1, 4]: no effect
- IL12 cytokine secretion [1, 4]: no effect
- INFγ cytokine secretion [1, 4]: no effect
- severe colitis (EXCY2 mice; 0.22 μmoles/kg OxA): alleviated
- severe colitis (EXCY2 mice; 1 μM OxA): alleviated
- deregulated pathways involved in the onset of colitis (oxidative stress and ER stress) (EXCY2 mice; EXCY2 mice): induced
- DAI score (EXCY2 mice; EXCY2 mice): 1.5
- colonic mucosa (general crypts aspect, crypt size, presence of goblet cells, absence of immune cells infiltration) (EXCY2 mice; OxA-treated vs vehicle treated EXCY2 mice, FIG. 4): normal colonic mucosa
- IFNγ secretion [2]: strong reduction
- IL6 secretion [2]: strong reduction
- IL10 secretion [2]: unchanged
- IL12 secretion [2]: strong reduction
- MCP1 secretion [2]: strong reduction
- TNFα secretion [2]: strong reduction
- deregulated pathways involved in the onset of colitis (oxidative stress and ER stress) (Caco2 cells): induced

Compound: Nc1ccc(O)c(C(=O)O)c1 [5-ASA, 5-aminosalicylic acid, reference compound]
- DAI score (EXCY2 mice; EXCY2 mice): 3
